Laboratory results reported in patent US12533350B2, “Use of melanocortin-1 receptor agonist” (TANABE PHARMA CORPORATION, priority 2022, dated 2026).

Columns and labels:
[1] = tested on: dermal fibroblasts from healthy donors; assay: TGF-β-induced human fibroblast activation, healthy donors; format: cell-based; details: TGF-β 10 ng/mL, 24 hours
Excerpt: Full-thickness skin biopsies were obtained from clinically involved skin of patients affected by dcSSc, who were recruited from the Systemic sclerosis clinic within the Leeds Institute of Rheumatic and Musculoskeletal Medicine (UK). Control skin samples were from healthy donors. All patients with dcSSc and healthy donors provided written informed consent through the stratification for risk of progression in systemic sclerosis (STRIKE SSC), which had been approved by the North-East Research Ethic committee. Patients with SSc fulfilled the 2013 ACR/EULAR classification criteria for SSc and were classified as having dcSSc according to the LeRoy and Medsger criteria.
Dermal fibroblasts were isolated from the skin biopsy samples of healthy donors and SSc patients. The skin biopsy samples were minced with a scalpel, placed in plastic culture dishes and covered with Dulbecco's Modified Eagle Medium (DMEM) with 4.5 g/L glucose (Thermo Fisher Scientific) supplemented with 20% fetal calf serum (FCS, Thermo Fisher Scientific), 1% penicillin and streptomycin (Merck), and 1 μg/ml of amphotericin (Thermo Fisher Scientific) and cultured at 37° C. in a humidified atmosphere of 5% CO2. Additional growth medium was added after 3 days with no amphotericin. After 7 days, culture medium was replaced with medium containing 10% FCS and subsequently replenished every 2 to 3 days. When a visible outgrowth of cells was obtained, the fibroblasts were passaged. Briefly, cells were incubated with PBS containing 0.1% EDTA for 5 min, and then detached with trypsin-EDTA solution (Merck), and cultured until 70-80% confluent in DMEM (1 g/L glucose) supplemented with 10% FCS and 1% penicillin and streptomycin. After a subsequent passage, primary cells were retrovirally immortalized using human telomerase reverse transcriptase. […]
Total RNA was extracted using the Zymo quick RNA mini prep kit according to manufacturer's instructions (Zymo Research Corporation). […] Quantitative RT-PCR was performed in triplicates using SYBR Green RT-PCR Mastermix Kit (Thermo Fisher Scientific) and the ABI PRISM 7500 Fast Real Time PCR System (Applied Biosystems). […]
FIGS. 5(A)-5(B) show the effect of Compound A on human fibroblast activation. Dermal fibroblasts from a healthy individual or an SSc patient were grown to confluence, and placed under starvation for 24 hours in a medium supplemented with 1% fetal bovine serum (A: mRNA expression of ACTA2 and COL1A1 in dermal fibroblasts of healthy individuals was measured by real-time PCR, and normalized for the GAPDH expression level. B: mRNA expression of ACTA2 and COL1A1 in dermal fibroblasts of SSc patients was measured for by real-time PCR, and normalized for the GAPDH expression level). Each bar represents the mean±SEM of the measured values from three wells. […]

[2] = tested on: pre-established BLM-induced skin fibrosis
MC1R = MC1R (Homo sapiens, UniProt Q01726); details: described in WO 2020/138481; co-crystal with phosphoric acid; cited from earlier work
[3] = Compound A at 3 and 10 mg/kg orally once daily day 22-42, samples day 43

MC1R, sequence (Q01726 whole entry, species assumed): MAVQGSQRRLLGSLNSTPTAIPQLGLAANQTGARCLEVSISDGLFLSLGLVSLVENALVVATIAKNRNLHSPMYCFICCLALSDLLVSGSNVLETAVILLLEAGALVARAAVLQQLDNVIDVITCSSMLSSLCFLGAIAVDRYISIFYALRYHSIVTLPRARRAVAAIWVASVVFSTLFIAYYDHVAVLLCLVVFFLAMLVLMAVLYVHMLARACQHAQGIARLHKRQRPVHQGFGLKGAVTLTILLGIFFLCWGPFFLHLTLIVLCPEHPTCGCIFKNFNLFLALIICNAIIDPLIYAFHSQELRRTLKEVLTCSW

## COC[C@H]1CN(C(=O)[C@]2(F)CN(C3CCCC3)C[C@H]2c2ccc(OC)cc2)C[C@@H]1c1ccc(C(F)(F)F)cc1N1CCC(C(=O)O)CC1 [Compound A, 1-{2-[(3S,4R)-1-{[(3R,4R)-1-cyclopentyl-3-fluoro-4-(4-methoxyphenyl)pyrrolidin-3-yl]carbonyl}-4-(methoxymethyl)pyrrolidin-3-yl]-5-(trifluoromethyl)phenyl}piperidine-4-carboxylic acid]
[1]; concentration-dependent, normalized to GAPDH
  TGF-β-induced αSMA (ACTA2) mRNA elevation: inhibited
[1]; normalized to GAPDH
  TGF-β-induced COL1A1 mRNA expression: no effect
[1]; concentration of 1000 nmol/L
  TGF-β-induced increase in αSMA mRNA expression: suppressed
[2]; [3]
  BLM-induced increase of skin thickness: significantly inhibited
  BLM-induced increase of αSMA-positive myofibroblasts in the dermis: significantly inhibited
[2]; Compound A orally once daily day 22-42, samples day 43
  BLM-induced loss of dermal white adipose tissue (Masson's trichrome staining): inhibited
[2]; Compound A orally once daily during last 3 weeks of 6-week BLM
  progression of fibrosis after 3 weeks (versus group 2: BLM 3 weeks then saline 3 weeks): almost completely inhibited
MC1R
  MCR-activating action, especially MC1R-activating action: excellent MCR-activating action
